Experimental data: patent publication EP4285905A1, “CABERGOLINE OR A PHARMACEUTICALLY ACCEPTABLE SALT OR SOLVATE THEREOF, FOR USE IN PREVENTION OR DELAY OF POST-PREGNANCY BREAST CANCER IN A FEMALE MAMMAL” (Consejo Superior de Investigaciones Cientificas, priority 2022, dated 2023)

Test system: recombinant (RFP+) cells
Assay: Flow cytometry of RFP+ recombinant mammary epithelial subpopulations
Assay type: in vivo, mice
Conditions: 60 days after weaning
Description: The mouse model used for the cytometry studies was obtained by crossing the conditional model K14Cre; Brca1^F/F; P53^F/F with a model that expresses red fluorescent protein (RFP) under the promoter of the ROSA26 locus. This promoter has a stop codon flanked by LoxP sites that recognize Cre-recombinase. In this way, cells that lose Brca1 (gene) and P53 (gene) due to the action of Cre-recombinase also express RFP and emit fluorescence. The mouse was obtained from the European repository (European mutant mouse archive - EMMA) and was generated by the group of Hans Jörg Fehling from the Institute of Immunology of the Clinical University of Ulm, Germany. For these studies, between 6 and 11 mice from the different study groups were used.
Once the mouse mammary glands were removed, they were incubated in a 50 mL tube containing 9 mL of medium (Gibco DMEM/F-12, #11554546, Fisher Scientific), 500 µL of collagenase and 500 µL of hyaluronidase, at a temperature of 37 °C for 16 hours. After incubation, the aggregated tissue debris was disrupted by pipetting for approximately 30 seconds and the sample was centrifuged for 5 minutes at 350 g at room temperature. Centrifugation was performed, in all examples, using the Eppendorf 5804R refrigerated centrifuge including an A-44 rotor with a radius of 15 cm (width (metric) exterior 634 mm; depth (metric) 550 mm, height (metric) exterior 342 mm). The supernatant was discarded and the pellet formed was resuspended in 2 mL of ACK buffer (Gibco ACK Lysing Buffer, #A10492-01, Fisher Scientific) to lyse the erythrocytes present in the sample. The disaggregated sample was incubated in ACK buffer for 5 minutes at room temperature and subsequently centrifuged at 350 g for 5 minutes. After centrifugation, the supernatant was discarded and 1 mL of trypsin was added at 37 °C. The pellet was resuspended by pipetting for 2 minutes. Next, 10 mL of saline (Gibco HBSS, #14025-092, Fisher Scientific) supplemented with 10 mM HEPES buffer and fetal bovine serum was added and centrifuged for 5 minutes at 350 g at room temperature. Then, the supernatant was discarded and 1 mL of the buffered saline solution (hereinafter HF) and 100 µL of warm DNase were added, carefully pipetted for 1 minute and 5 mL of cold HF was added, to stop action of the DNase. The mixture was filtered through a 40 µm filter and washed with 5 mL of cold HF. It was centrifuged for 5 minutes at 350 g, at a temperature of 4 °C and the supernatant was removed after centrifugation. Subsequently, the mixture was resuspended in 5 mL of cold HF and the mixture was distributed in cytometry tubes with a 35 µm filter. 4/5 of the sample was allocated for immunolabeling and the remaining 1/5 was allocated as an unlabelled control. It was centrifuged for 5 minutes at 1200 rpm (= 20 s^-1) at a temperature of 4 °C and the supernatant was decanted after centrifugation. Subsequently, 52 µL of blocking solution, consisting of 50 µL of HF and 2 µL of anti-CD16/CD32 antibody, were added, gently vortexed and incubated for 10 minutes at 4 °C. Next, 50 µL of immuno-labelling solution made up of the following antibodies: CD45 FITC, CD140 FITC, CD31 FITC, Ter119 FITC, CD49fAPC, CD29 APC-Cy7, CD61 BV421, Sca1 PerCP-Cy5, EpCAM PE- Cy7, e506, was added to the tube intended for staining and 50 µL of HF was added to the control tube. After incubating for 30 minutes and performing a wash, the samples were acquired with the LSR Fortessa X-20 Cell Analyzer cytometer (BD Biosciences). […]

[1] = KO-RFP+ group, vs nulliparous and lactating multiparous mice
[2] = treated vs untreated multiparous mice

With `C=CCN1C[C@H](C(=O)N(CCCN(C)C)C(=O)NCC)C[C@@H]2c3cccc4[nH]cc(c34)C[C@H]21` [cabergoline, 1-[(6-allylergolin-8ß-yl)-carbonyl]-1-[3-(dimethylamino)propyl]-3-ethylurea] the “ductal precursor cells (CD61+) with respect to total recombinant ductal cells” value [1] was “relative increase in precursors”, the “mature ductal cells (CD61-) with respect to total recombinant ductal cells” value [1] was “relative decrease in mature ductal cells” and the “ductal cell subpopulations with respect to total recombinant epithelial cells” value [2] was “no statistically significant differences”. The “proportion of luminal and basal cells within recombinant cells (RFP+)” value [2] was “No significant differences” and the “proportion of luminal ductal cells (Sca1+) within recombinant luminal cells” value [2] was “no significant differences”.
